The test system of data set [1] is A549 cells. Briefly: Cytotoxicity (LDH release) towards A549 cells. The format is cell-based, Human. The settings on record: LPS-stimulated A549, 4 h. On the procedure:
(§1) Human non-small-cell lung adenocarcinoma A549 cells (ATCC CCL-185; LGC Standards, Milan, Italy) and human monocytic THP-1 cells (ATCC TIB-202; LGC Standards) were cultured in tissue culture flasks in Dulbecco’s modified essential medium (DMEM) (Euroclone, Milan, Italy) and RPMI 1640 medium (Euroclone), respectively. Both media were supplemented with 2 mM L-glutamine (Euroclone) and 10% heat-inactivated fetal bovine serum (FBS; Euroclone). Confluent monolayers were detached from the culture flask with 0.25% trypsin/1 mM EDTA solution (Euroclone), suspended in complete culture medium and seeded into flat-bottom 96-well plates at a final density of 1 × 10^4 cells/well (A549) and 2 × 10^4 cells/well (THP-1). A549 cells were cultured for 24 h at 37 °C, 5% CO2 in order to allow adhesion and formation of semi-confluent monolayers. THP-1 cells were cultured for 3 days (37 °C, 5% CO2) in the presence of 100 nM TPA (Sigma-Aldrich, St. Louis, MO, USA) to induce their differentiation into macrophage-like cells.
The cytotoxicity of lin-SB056-1 and (lin-SB056-1)2-K towards A549 and THP-1 cells was evaluated to exclude a possible correlation between reduction in cytokine levels and decrease in cell numbers. To this end, culture supernatants of cells stimulated with LPS in the presence of the peptides were employed to quantify the amount of cytoplasmic LDH released by dead cells. Cells incubated in culture medium alone or in the presence of LPS served as an indication of spontaneous cell death (cell viability controls), while cells treated with a commercial lysis buffer (Pierce LDH cytotoxicity assay kit, Thermo Fisher Scientific) were used as cell death control (100% cell lysis). The enzymatic activity of LDH in cell supernatants was measured using the Pierce LDH cytotoxicity assay kit (Thermo Fisher Scientific) following manufacturer’s instructions. The cytotoxic effect was determined as follows: cytotoxicity (%) = [(LDH activity of A/LDH activity of B) × 100], where A represents peptide-treated or untreated cells (both in the presence and absence of LPS), and B corresponds to the cell lysis control.
A general note: LDH in the medium is a marker of cell lysis.

Data set [2] has as its system A549 cells. The data set is described as follows: LPS-induced cytokine production by A549 cells (bead-based multiplex immunoassay). The format is cell-based, Human. The settings on record: 4 h, 37 °C. The protocol:
as §1
The anti-inflammatory potential of lin-SB056-1 and (lin-SB056-1)2-K was assessed by evaluating their ability to reduce LPS-induced production of pro-inflammatory cytokines by A549 cells and THP-1 macrophages. In order to ensure cytokine production, cell monolayers were stimulated with LPS from P. aeruginosa serotype 10 (purified by phenol extraction; Sigma-Aldrich, Milano, Italy) at a final concentration of 10 ng/mL (THP-1) and 800 ng/mL (A549). LPS concentrations used in the experiments were chosen based on preliminary assays aimed at identifying the minimum dose of the molecule able to stimulate cytokine production after 4 h of exposure. In order to assess the inhibitory activity of peptides on cytokine production, cell monolayers were incubated in complete culture medium in the presence of LPS and different concentrations of lin-SB056-1 and (lin-SB056-1)2-K (4.8 to 19.25 μM) for 4 h (37 °C, 5% CO2). Cells incubated in the presence of LPS alone were used as positive (cytokine production) control. Following incubation, cell culture supernatants were collected, filter sterilized (0.22 µm) and employed for the quantification of cytokines and the assessment of cell viability.
Different pro-inflammatory cytokines (i.e., IL-1β, IL-6, IL-8 and TNF-α) were quantified in cell culture supernatants through a bead-based multiplex immunoassay (LEGENDplex multi-analyte flow assay kit; BioLegend, San Diego, CA, USA) following manufacturer’s instructions. Briefly, 25 μL of cytokine standard or cell supernatant were incubated with 25 μL of anti-cytokine conjugated beads into V-bottom 96-well plates for 2 h. Following incubation, the plates were washed and subsequently incubated with the detection antibody (25 μL/well) for 1 h. A volume of 25 μL of streptavidin-phycoerythrin was added to each well, and the plates were incubated for another 30 min in the dark. Following consecutive washing steps, the beads were resuspended in the LEGENDplex wash buffer and the samples were analyzed by flow cytometry (BD Accuri C6 flow cytometer; BD Biosciences, Mountain View, CA, United States). Data were acquired with the BD Accuri C6 software (BD Biosciences) (300 events per analyte) and analyzed with the LEGENDplex software (BioLegend). Minimum detectable concentration (MDC+2STDEV) for the tested cytokines were as follows: IL-1β, 0.65 + 0.47 pg/mL; IL-6, 0.97 + 1.46 pg/mL; IL-8, 1.90 + 0.65 pg/mL; TNF-α, 0.88 + 0.27 pg/mL.

The subject of another data set is P. aeruginosa. Conditions: 3-D lung epithelial cell model, cited from earlier work. From the text: In our previous work, we explored different strategies to enhance the anti-bacterial and anti-biofilm activity of the semi-synthetic peptide lin-SB056-1 [12] in physiologically relevant, host-mimicking conditions that are known to interfere with the stability and efficacy of AMPs.

Data set [3] can be described thus: BODIPY TR cadaverine (BC) fluorescent displacement assay, LPS binding. Details: species or system P. aeruginosa. Conditions: 50 mM Tris-HCl, pH 7.4, 25 °C. On the procedure:
Measurement of the ability of lin-SB056-1 and its dendrimeric derivative to bind P. aeruginosa serotype 10 LPS (Sigma-Aldrich) in vitro was performed by a fluorescent displacement assay using the BODIPY TR cadaverine (BC) probe (5-(((4-(4,4-difluoro-5-(2-thienyl)-4-bora-3a,4a-diaza-s-indacene-3-yl)phenoxy)acetyl)amino)pentylamine, hydrochloride); Thermo Fisher Scientific), as described elsewhere. BC binds to LPS by recognizing the lipid A portion and the probe fluorescence is quenched. When a peptide able to interact with LPS is added, BC is displaced from the complex and its fluorescence increases. LPS binding assays were carried out in 50 mM Tris-HCl buffer, pH 7.4. Aliquots of the peptides at a final concentration of 0.1 μM were successively added to a cuvette containing the LPS/BC complex (10 µg/mL P. aeruginosa LPS and 10 µM BC). Fluorescence measurements were performed with a Perkin-Elmer LS 55B spectrofluorometer (Perkin-Elmer, Waltham, MA, USA) using a thermostated (25 °C) cuvette apparatus (excitation: 580 nm; emission: 620 nm).

Setting [4] is: 9.6 μM peptide, P. aeruginosa serotype 10 LPS 800 ng/mL, 5% CO2, complete culture medium, mean of at least three independent experiments, vs peptide-untreated control.

The text below walks through data of PMC7557804, “The Anti-Microbial Peptide (Lin-SB056-1)2-K Reduces Pro-Inflammatory Cytokine Release through Interaction with Pseudomonas aeruginosa Lipopolysaccharide” (Antibiotics, 2020).

“[KWKIRVRLSA]2-K [(lin-SB056-1)2-K, dendrimeric derivative of lin-SB056-1]”: the “cell death (LDH release), with LPS” value with A549 cells [1] (up to 19.25 μM (highest tested), 37 °C, 5% CO2, relative to cell lysis control, at least three independent experiments) is recorded as “less than 5%”. In addition, the “toxicity” value with A549 cells [1] (up to 19.25 μM, LDH release) is “no detectable toxicity”. For the same substance, in the data set with A549 cells [2] (setting [4]), the “reduction of IL-6 levels” value was at most 80% and the “reduction of IL-8 levels” value is recorded as at most 80%. The “effect on IL-6 release” value in the data set with A549 cells [2] (LPS 800 ng/mL, peptide 4.8 to 19.25 μM) is on record as “significant reduction”. Further, in the data set with A549 cells [2] (LPS 800 ng/mL, peptide 4.8 to 19.25 μM, lin-SB056-1 decrease at 19.25 μM (highest tested)), the “effect on IL-8 release” value is listed as “significant reduction”. Besides, the “reduction in the number of biofilm-forming bacteria” value in the data set with P. aeruginosa (19.25 µM) is at most 99.9%. Moreover, the “anti-biofilm activity” value in the data set on P. aeruginosa (compared to lin-SB056-1 and lin-SB056-1/EDTA) was “stronger anti-biofilm activity compared to both lin-SB056-1 and the lin-SB056-1/EDTA combination”. For the same substance, the “LPS-binding affinity compared to monomeric form” value in data set [3] (BC displacement) was “significantly greater affinity”. For the same substance, the “ED50 (Effective Displacement; peptide concentration displacing half of the BC)” value in data set [3] (P. aeruginosa serotype 10 LPS 10 µg/mL, BC 10 µM, excitation 580 nm, emission 620 nm, mean of three independent experiments, SD not exceeding 5%) is “approximately 0.4 µM”.
